Experimental data from patent US9451774B2, “Paddy rice seed treated by herbicidal composition and method for controlling weed” (MITSUI CHEMICALS AGRO, INC., priority 2013, dated 2016).

Legend:
[1] = tested on: Echinochloa oryzicola; assay: Test Example 6: pot test, herbicide-treated seed, growth inhibition; assay type: in vivo; conditions: 20 days after sowing, dosage a.i. g per 1 kg of seeds: Pyrimisulfan 0.5, Pyriminobac-methyl 1.5, Butachlor 1.25
Excerpt: (§3) In 100 cm^2 of a pot was filled a paddy field soil, and after paddling, seeds of Echinochloa oryzicola and Scirpus juncoides Roxb. were sown and mixed into the surface layer of the soil. Paddy rice seeds (variety: Nipponbare) sprouted into a pigeon breast shape were dust-coated with a predetermined amount of wettable powder each prepared according to Preparation examples 5, 6 and 9, and were sown onto the surface of the soil or into the soil (depth: 1 cm) at an amount of 10 grains/pot. After the sowing, water was introduced quietly and flooded up to 1 cm. After 20 days from the sowing, a growth inhibition rate was judged according to the above-mentioned judgement criteria.

[2] = tested on: Scirpus juncoides Roxb.; assay: as above; assay type: in vivo; conditions: 20 days after sowing, dosage a.i. g per 1 kg of seeds: Pyrimisulfan 0.5, Pyriminobac-methyl 1.5, Butachlor 1.25
Excerpt: as §3

[3] = tested on: Scirpus juncoides Roxb.; assay: Test Example 3: pot test, iron powder-coated herbicide-treated seed, growth inhibition; assay type: in vivo; conditions: surface sowing, 22 days after sowing, dosage a.i. g per 1 kg of seeds: Pyrimisulfan 0.5, Pyriminobac-methyl 1.5
Method: (§1) Also, paddy rice seeds (variety: Koshihikari) dipped in 20° C. of water for 2 days were dust-coated with a mixture of iron powder and calcined gypsum (a mixing ratio of 10:1) with an amount of 100 g per 1 kg of the seeds (dried unhulled rice) to prepare iron powder-coated seeds.

[4] = tested on: Echinochloa oryzicola; assay: as above; assay type: in vivo; conditions: surface sowing, 22 days after sowing, dosage a.i. g per 1 kg of seeds: Pyrimisulfan 0.5, Pyriminobac-methyl 1.5
Method: as §1

[5] = tested on: Lindernia procumbens; assay: Test Example 10: pot test, seed treated with herbicide with or without dymron, growth inhibition; assay type: in vivo; conditions: Surface sowing; 20 days after sowing; dosage a.i. g per 1 kg of seeds: Pyrimisulfan + Dymron 1 + 40, Pyrimisulfan 1
Excerpt: (§2) In 100 cm^2 of a pot was filled a paddy field soil, and after paddling, seeds of Monochoria vaginalis and Lindernia procumbens were sown and mixed into the surface layer of the soil. Paddy rice seeds (variety: Nipponbare) sprouted into a pigeon breast shape were dust-coated with a predetermined amount of wettable powder each prepared according to Preparation examples 5 and 11, and were sown onto the surface of the soil at an amount of 10 grains/pot. After the sowing, water was introduced quietly and flooded up to 1 cm. After 20 days from the sowing, a growth inhibition rate was judged according to the above-mentioned judgement criteria.

[6] = tested on: Monochoria vaginalis; assay: as above; assay type: in vivo; conditions: Surface sowing; 20 days after sowing; dosage a.i. g per 1 kg of seeds: Pyrimisulfan + Dymron 1 + 40, Pyrimisulfan 1
Excerpt: as §2

[7] = tested on: Lindernia procumbens; assay: Test Example 1: pot test, herbicide-treated paddy rice seed, growth inhibition; assay type: in vivo; conditions: 30 days after sowing, dosage a.i. g per 1 kg of seeds: Pyrazolate 150, Compound (I) 37.5, Thenylchlor 0.63
Excerpt: as §2, with “Preparation examples 1, 2 and 7,” for “Preparation examples 5 and 11,”, “2 and 7, and were” for “5 and 11, and were”, “the soil or into the soil (depth: 1 cm) at an” for “the soil at an”, “cm. After 30 days from” for “cm. After 20 days from”, “to the following judgement criteria.” for “to the above-mentioned judgement criteria.”

[8] = tested on: Monochoria vaginalis; assay: as above; assay type: in vivo; conditions: 30 days after sowing, dosage a.i. g per 1 kg of seeds: Pyrazolate 150, Compound (I) 37.5, Thenylchlor 0.63
Excerpt: as §2, with “Preparation examples 1, 2 and 7,” for “Preparation examples 5 and 11,”, “2 and 7, and were” for “5 and 11, and were”, “the soil or into the soil (depth: 1 cm) at an” for “the soil at an”, “cm. After 30 days from” for “cm. After 20 days from”, “to the following judgement criteria.” for “to the above-mentioned judgement criteria.”

[9] = tested on: Paddy rice (variety: Nipponbare); assay: Test Example 1: pot test, growth inhibition (chemical damage) of the paddy rice; assay type: in vivo; conditions: 30 days after sowing, dosage a.i. g per 1 kg of seeds: Pyrazolate 150, Compound (I) 37.5, Thenylchlor 0.63
Excerpt: as §2, with “Preparation examples 1, 2 and 7,” for “Preparation examples 5 and 11,”, “2 and 7, and were” for “5 and 11, and were”, “the soil or into the soil (depth: 1 cm) at an” for “the soil at an”, “cm. After 30 days from” for “cm. After 20 days from”, “to the following judgement criteria.” for “to the above-mentioned judgement criteria.”

[10] = tested on: Echinochloa oryzicola; assay: Test Example 7: pot test, seed dust-coated with COMMAND3ME, growth inhibition; assay type: in vivo; conditions: Surface sowing; 21 days after sowing; dosage 2.5 a.i. g per 1 kg of seeds (as COMMAND3ME)
Excerpt: In 100 cm^2 of a pot was filled a paddy field soil, and after paddling, seeds of Echinochloa oryzicola was sown and mixed into the surface layer of the soil. Paddy rice seeds (variety: Nipponbare) sprouted into a pigeon breast shape were dust-coated with a predetermined amount of COMMAND3ME™ (clomazone: 31.4%, available from FMC Corporation), and were sown onto the surface of the soil at an amount of 10 grains/pot. After the sowing, water was introduced quietly and flooded up to 1 cm. After 21 days from the sowing, a growth inhibition rate was judged according to the above-mentioned judgement criteria.

[11] = tested on: Scirpus juncoides Roxb.; assay: Test Example 5: pot test, herbicide-treated seed, growth inhibition; assay type: in vivo; conditions: 20 days after sowing, dosage a.i. g per 1 kg of seeds: Sulcotrione 1.0, Imazosulfuron 1.0, Oxadiargyl 0.15
Excerpt: (§4) In 100 cm^2 of a pot was filled a paddy field soil, and after paddling, seeds of Lindernia procumbens and Scirpus juncoides Roxb. were sown and mixed into the surface layer of the soil. Paddy rice seeds (variety: Nipponbare) sprouted into a pigeon breast shape were dust-coated with a predetermined amount of wettable powder each prepared according to Preparation examples 3, 4 and 8, and were sown onto the surface of the soil or into the soil (depth: 1 cm) at an amount of 10 grains/pot. After the sowing, water was introduced quietly and flooded up to 1 cm. After 20 days from the sowing, a growth inhibition rate was judged according to the following judgement criteria.

[12] = tested on: Lindernia procumbens; assay: Test Example 2: pot test, iron powder-coated herbicide-treated seed, growth inhibition; assay type: in vivo; conditions: surface sowing, 21 days after sowing, dosage a.i. g per 1 kg of seeds: Pyrazolate 150, Compound (I) 38, Sulcotrione 1.0, Imazosulfuron 1.0
Method: as §1

[13] = tested on: Monochoria vaginalis; assay: as above; assay type: in vivo; conditions: surface sowing, 21 days after sowing, dosage a.i. g per 1 kg of seeds: Pyrazolate 150, Compound (I) 38, Sulcotrione 1.0, Imazosulfuron 1.0
Method: as §1

[14] = tested on: Lindernia procumbens; assay: Test Example 5: pot test, herbicide-treated seed, growth inhibition; assay type: in vivo; conditions: 20 days after sowing, dosage a.i. g per 1 kg of seeds: Sulcotrione 1.0, Imazosulfuron 1.0, Oxadiargyl 0.15
Excerpt: as §4

[15] = tested on: Paddy rice (variety: Koshihikari); assay: Test Example 2: pot test, iron powder-coated seed, growth inhibition of the paddy rice; assay type: in vivo; conditions: surface sowing, 21 days after sowing, dosage a.i. g per 1 kg of seeds: Pyrazolate 150, Compound (I) 38, Sulcotrione 1.0, Imazosulfuron 1.0
Method: as §1

[16] = tested on: Paddy rice (variety: Nipponbare); assay: Test Example 5: pot test, growth inhibition of the paddy rice; assay type: in vivo; conditions: 20 days after sowing, dosage a.i. g per 1 kg of seeds: Sulcotrione 1.0, Imazosulfuron 1.0, Oxadiargyl 0.15
Excerpt: as §4

[17] = tested on: Paddy rice (variety: Koshihikari); assay: Test Example 3: pot test, iron powder-coated seed, growth inhibition of the paddy rice; assay type: in vivo; conditions: surface sowing, 22 days after sowing, dosage a.i. g per 1 kg of seeds: Pyrimisulfan 0.5, Pyriminobac-methyl 1.5
Method: as §1

[18] = tested on: Paddy rice (variety: Nipponbare); assay: Test Example 6: pot test, growth inhibition of the paddy rice; assay type: in vivo; conditions: 20 days after sowing, dosage a.i. g per 1 kg of seeds: Pyrimisulfan 0.5, Pyriminobac-methyl 1.5, Butachlor 1.25
Excerpt: as §3

[19] = tested on: paddy rice varieties Habataki, Takanari, Momiroman, Mizuhochikara, Ruriaoba and Odorokimochi; conditions: Japanese Journal of Crop Science 79 (Extra 1); cited from earlier work
[20] = Surface sowing of treated rice seed

## COCc1cccc(C(O)c2nc(OC)cc(OC)n2)c1NS(=O)(=O)C(F)F (stereo not shown) [Pyrimisulfan, pyrimisulfan]
[1]; Sowing into soil (depth 1 cm)
  Growth inhibition rate, Echinochloa oryzicola: 8 (Growth inhibition rate of 73 to 81%)
[1]; Surface sowing
  Growth inhibition rate, Echinochloa oryzicola: 10 (Growth inhibition rate of 91 to 100%)
[2]; Sowing into soil (depth 1 cm)
  Growth inhibition rate, Scirpus juncoides Roxb.: 10 (Growth inhibition rate of 91 to 100%)
[2]; Surface sowing
  Growth inhibition rate, Scirpus juncoides Roxb.: 10 (Growth inhibition rate of 91 to 100%)
[3]
  Growth inhibition rate, Scirpus juncoides Roxb.: 10 (Growth inhibition rate of 91 to 100%)
[4]
  Growth inhibition rate, Echinochloa oryzicola: 10 (Growth inhibition rate of 91 to 100%)
[5]
  Growth inhibition rate, Lindernia procumbens: 10 (Growth inhibition rate of 91 to 100%)
[6]
  Growth inhibition rate, Monochoria vaginalis: 10 (Growth inhibition rate of 91 to 100%)

## COc1ccsc1CN(C(=O)CCl)c1c(C)cccc1C [Thenylchlor, thenylchlor]
[7]; Sowing into soil (depth 1 cm)
  Growth inhibition rate, Lindernia procumbens: 8 (Growth inhibition rate of 73 to 81%)
[7]; [20]
  Growth inhibition rate, Lindernia procumbens: 9 (Growth inhibition rate of 82 to 90%)
[8]; Sowing into soil (depth 1 cm)
  Growth inhibition rate, Monochoria vaginalis: 6 (Growth inhibition rate of 55 to 63%)
[8]; [20]
  Growth inhibition rate, Monochoria vaginalis: 7 (Growth inhibition rate of 64 to 72%)
[9]; Sowing into soil (depth 1 cm)
  Growth inhibition rate, Paddy rice: 9 (Growth inhibition rate of 82 to 90%)
[9]; Surface sowing
  Growth inhibition rate, Paddy rice: 6 (Growth inhibition rate of 55 to 63%)

## CC1(C)CON(Cc2ccccc2Cl)C1=O [Clomazone, clomazone]
[10]
  Growth inhibition rate, Echinochloa oryzicola: 9 (Growth inhibition rate of 82 to 90%)

## COc1cc(OC)nc(NC(=O)NS(=O)(=O)c2c(Cl)nc3ccccn23)n1 [Imazosulfuron, imazosulfuron]
[11]; Sowing into soil (depth 1 cm)
  Growth inhibition rate, Scirpus juncoides Roxb.: 9 (Growth inhibition rate of 82 to 90%)
[11]; Surface sowing
  Growth inhibition rate, Scirpus juncoides Roxb.: 10 (Growth inhibition rate of 91 to 100%)
[12]
  Growth inhibition rate, Lindernia procumbens: 10 (Growth inhibition rate of 91 to 100%)
[13]
  Growth inhibition rate, Monochoria vaginalis: 10 (Growth inhibition rate of 91 to 100%)
[14]; Sowing into soil (depth 1 cm)
  Growth inhibition rate, Lindernia procumbens: 10 (Growth inhibition rate of 91 to 100%)
[14]; Surface sowing
  Growth inhibition rate, Lindernia procumbens: 10 (Growth inhibition rate of 91 to 100%)

## CCCCOCN(C(=O)CCl)c1c(CC)cccc1CC [Butachlor, butachlor]
[1]; Sowing into soil (depth 1 cm)
  Growth inhibition rate, Echinochloa oryzicola: 5 (Growth inhibition rate of 46 to 54%)
[1]; Surface sowing
  Growth inhibition rate, Echinochloa oryzicola: 7 (Growth inhibition rate of 64 to 72%)
[2]; Sowing into soil (depth 1 cm)
  Growth inhibition rate, Scirpus juncoides Roxb.: 0 (Growth inhibition rate of 0 to 9%)
[2]; Surface sowing
  Growth inhibition rate, Scirpus juncoides Roxb.: 0 (Growth inhibition rate of 0 to 9%)

## Cc1cccc(C2CC2)c1Oc1nnc(Cl)cc1OC(=O)N1CCOCC1 [Compound (I), 6-chloro-3-(2-cyclopropyl-6-methylphenoxy)pyridazin-4-yl morpholin-4-carboxylate]
[7]; Sowing into soil (depth 1 cm)
  Growth inhibition rate, Lindernia procumbens: 8 (Growth inhibition rate of 73 to 81%)
[7]; [20]
  Growth inhibition rate, Lindernia procumbens: 10 (Growth inhibition rate of 91 to 100%)
[8]; Sowing into soil (depth 1 cm)
  Growth inhibition rate, Monochoria vaginalis: 9 (Growth inhibition rate of 82 to 90%)
[8]; [20]
  Growth inhibition rate, Monochoria vaginalis: 10 (Growth inhibition rate of 91 to 100%)
[15]
  Growth inhibition rate, Paddy rice: 0 (Growth inhibition rate of 0 to 9%)
[9]; Sowing into soil (depth 1 cm)
  Growth inhibition rate, Paddy rice: 5 (Growth inhibition rate of 46 to 54%)
[9]; Surface sowing
  Growth inhibition rate, Paddy rice: 0 (Growth inhibition rate of 0 to 9%)
[12]
  Growth inhibition rate, Lindernia procumbens: 10 (Growth inhibition rate of 91 to 100%)
[13]
  Growth inhibition rate, Monochoria vaginalis: 10 (Growth inhibition rate of 91 to 100%)

## CS(=O)(=O)c1ccc(C(=O)C2C(=O)CCCC2=O)c(Cl)c1 [Sulcotrione, sulcotrione]
[15]
  Growth inhibition rate, Paddy rice: 0 (Growth inhibition rate of 0 to 9%)
[16]; Sowing into soil (depth 1 cm)
  Growth inhibition rate, Paddy rice: 3 (Growth inhibition rate of 28 to 36%)
[16]; Surface sowing
  Growth inhibition rate, Paddy rice: 0 (Growth inhibition rate of 0 to 9%)
[11]; Sowing into soil (depth 1 cm)
  Growth inhibition rate, Scirpus juncoides Roxb.: 8 (Growth inhibition rate of 73 to 81%)
[11]; Surface sowing
  Growth inhibition rate, Scirpus juncoides Roxb.: 9 (Growth inhibition rate of 82 to 90%)
[12]
  Growth inhibition rate, Lindernia procumbens: 10 (Growth inhibition rate of 91 to 100%)
[13]
  Growth inhibition rate, Monochoria vaginalis: 10 (Growth inhibition rate of 91 to 100%)
[14]; Sowing into soil (depth 1 cm)
  Growth inhibition rate, Lindernia procumbens: 10 (Growth inhibition rate of 91 to 100%)
[14]; Surface sowing
  Growth inhibition rate, Lindernia procumbens: 10 (Growth inhibition rate of 91 to 100%)

## oxadiargyl
[11]; Sowing into soil (depth 1 cm)
  Growth inhibition rate, Scirpus juncoides Roxb.: 1 (Growth inhibition rate of 10 to 18%)
[11]; Surface sowing
  Growth inhibition rate, Scirpus juncoides Roxb.: 2 (Growth inhibition rate of 19 to 27%)
[14]; Sowing into soil (depth 1 cm)
  Growth inhibition rate, Lindernia procumbens: 10 (Growth inhibition rate of 91 to 100%)
[14]; Surface sowing
  Growth inhibition rate, Lindernia procumbens: 10 (Growth inhibition rate of 91 to 100%)

## CO/N=C(/C)c1cccc(Oc2nc(OC)cc(OC)n2)c1C(=O)OC [Pyriminobac-methyl, pyriminobac-methyl]
[1]; Sowing into soil (depth 1 cm)
  Growth inhibition rate, Echinochloa oryzicola: 10 (Growth inhibition rate of 91 to 100%)
[1]; Surface sowing
  Growth inhibition rate, Echinochloa oryzicola: 10 (Growth inhibition rate of 91 to 100%)
[2]; Sowing into soil (depth 1 cm)
  Growth inhibition rate, Scirpus juncoides Roxb.: 0 (Growth inhibition rate of 0 to 9%)
[2]; Surface sowing
  Growth inhibition rate, Scirpus juncoides Roxb.: 0 (Growth inhibition rate of 0 to 9%)
[17]
  Growth inhibition rate, Paddy rice: 0 (Growth inhibition rate of 0 to 9%)
[3]
  Growth inhibition rate, Scirpus juncoides Roxb.: 0 (Growth inhibition rate of 0 to 9%)
[4]
  Growth inhibition rate, Echinochloa oryzicola: 10 (Growth inhibition rate of 91 to 100%)
[18]; Sowing into soil (depth 1 cm)
  Growth inhibition rate, Paddy rice: 3 (Growth inhibition rate of 28 to 36%)
[18]; Surface sowing
  Growth inhibition rate, Paddy rice: 0 (Growth inhibition rate of 0 to 9%)

## CS(=O)(=O)c1ccc(C(=O)C2C(=O)CCCC2=O)c([N+](=O)[O-])c1 [mesotrione]
[19]
  Sensitivity of paddy rice variety to the herbicide: show sensitivity

## CS(=O)(=O)c1ccc(C(=O)C2=C(Sc3ccccc3)C3CCC(C3)C2=O)c(Cl)c1 (stereo not shown) [benzobicyclon]
[19]
  Sensitivity of paddy rice variety to the herbicide: show sensitivity
